Source: the OPERA property sets (Mansouri et al. 2018)

Conditions: for log10 BCF / log10 biotransformation half-life (days): fish

| SMILES | boiling point | log10 vapour pressure (mmHg) | melting point | also measured |
| --- | --- | --- | --- | --- |
| SCc1ccccc1 | 194 °C | -0.384 | -30 °C | – |
| Cc1ccc(OP(=O)(Oc2ccc(C)cc2)Oc2ccc(C)cc2)cc1 | – | – | 77.5 °C | – |
| CCC(=O)OC | 79.8 °C | 1.92 | -87.5 °C | log10 Henry constant (atm·m³/mol): -3.76 |
| CCCC(O)CC (stereo not drawn) | – | – | – | ready biodegradability: not readily biodegradable |
| O=C(OC(=O)c1ccccc1)c1ccccc1 | 360 °C | -3.93 | 42.5 °C | – |
| CC(O)C(=O)O (stereo not drawn) | – | -1.09 | 40.9 °C | ready biodegradability: readily biodegradable |
| C1CCC(C(C2CCCCC2)C2CCCCC2)CC1 | 326 °C | – | 48 °C | – |
| Brc1ccc2c(c1)Oc1ccc(Br)cc1O2 | – | -5.95 | 193 °C | – |
| FC(F)(F)C1(F)C(F)(F)C(F)(F)C(F)(F)C(F)(F)C1(F)C(F)(F)F (stereo not drawn) | – | – | – | ready biodegradability: not readily biodegradable |
| CC(=O)c1cccc(N)c1 | 290 °C | – | 98.5 °C | – |
| Nc1cc([N+](=O)[O-])cc([N+](=O)[O-])c1 | – | – | 163 °C | log10 Koc (L/kg): 2.55 |
| CCCOc1ccccc1OCC(O)CO (stereo not drawn) | – | – | 70 °C | – |
| Nc1ccc(N=Nc2ccc([N+](=O)[O-])cc2)cc1 | – | -9.52 | 215 °C | – |
| CCCCCCCCCCCC(=O)OCCOC(=O)CCCCCCCCCCC | – | – | 56.6 °C | – |
| CC(CCC(=O)O)c1ccccc1 (stereo not drawn) | – | – | 13 °C | – |
| FC1(F)C(F)(F)C(F)(F)C1(F)F | -5.9 °C | 3.37 | -40.1 °C | – |
| N#Cc1ccc(Br)cc1 | 236 °C | – | – | – |
| C#CC1(O)CCCCC1 | 174 °C | – | 31.5 °C | – |
| CCN=C=S | 132 °C | 1.06 | -5.9 °C | – |
| CCc1c(Br)c(Br)c(Br)c(Br)c1Br | – | – | 138 °C | log10 Koc (L/kg): 4.92; ready biodegradability: not readily biodegradable; log10 BCF: 2.52; log10 biotransformation half-life (days): 0.02 |
| O=c1[nH]c(=O)n([C@H]2C[C@H](O)[C@@H](CO)O2)cc1F | – | – | 150 °C | – |

| SMILES | boiling point | log10 vapour pressure (mmHg) | melting point | also measured |
| --- | --- | --- | --- | --- |
| CCCCCSSCCCCC | – | -2.2 | – | – |
| CCCCCCCCCCCCCCCCCCOS(=O)(=O)[O-].[Na+] | – | – | 212 °C | – |
| CCNCC(O)c1cccc(O)c1 (stereo not drawn) | – | – | 148 °C | – |
| CCCCCCCCCCC1CCCC1 | 279 °C | – | -22 °C | – |
| C=CCc1ccc(OC(C)=O)c(OC)c1 | 281 °C | -2.5 | 30.5 °C | – |
| CCCCCCCCCCCCCCCCCC(=O)CCCCCCCCCCCCCCCCC | – | – | 89 °C | – |
| O=C(CCC(=O)OCc1ccccc1)OCc1ccccc1 | – | – | 49.5 °C | – |
| O=C(O)C(Cl)(Cl)CCl | – | – | 65.5 °C | – |
| CC(C)(C)OC(=O)C(Cl)(Cl)Cl | – | – | 25.5 °C | – |
| CCOCCCO | – | – | 160 °C | – |
| O=C(O)Cc1c[nH]c2ccccc12 | – | – | 168 °C | – |
| Ic1ccccc1I | 287 °C | – | 27 °C | – |
| c1cc2c3c(c1)CCCN3CCC2 | – | – | 40 °C | – |
| Brc1cc(Br)cc(Br)c1 | 271 °C | -2.82 | 123 °C | log10 BCF: 3.7; log10 biotransformation half-life (days): 1.65 |
| CS(=O)(=O)c1ccc2c(c1)N(CCCN1CCC(C(N)=O)CC1)c1ccccc1S2 | – | – | 170 °C | – |
| CCC(CC)(CC)CC | 146 °C | 0.863 | -33.1 °C | – |
| COCCC(=O)OC | 143 °C | – | – | – |
| CC(C)(Cl)Br | 95 °C | – | – | – |
| CC(C)CCC[C@@H](C)[C@H]1CC[C@@H]2[C@@H]3CC[C@H]4CCCC[C@]4(C)[C@H]3CC[C@@]21C | – | – | 76 °C | – |
| c1ccc2[nH]nnc2c1 | 350 °C | – | 100 °C | log10 Koc (L/kg): 1.69 |
| COP(N)(=O)SC (stereo not drawn) | – | -4.45 | 46 °C | log10 Koc (L/kg): 0.7 |

| SMILES | boiling point | log10 vapour pressure (mmHg) | melting point | also measured |
| --- | --- | --- | --- | --- |
| c1cnoc1 | 95 °C | 1.66 | – | – |
| CCOC(=O)c1c(C)cc(O)cc1O | – | – | 132 °C | – |
| CCSC(=O)N1CCCCCC1 | – | -2.25 | – | log10 Henry constant (atm·m³/mol): -5.39; log10 Koc (L/kg): 1.92; log10 BCF: 1.41; log10 biotransformation half-life (days): -1.08 |
| CN(C)[Si](C)(C)C | 86 °C | – | – | – |
| CCOP(=S)(Oc1cnc(C(C)(C)C)nc1)OC(C)C (stereo not drawn) | – | -4.43 | – | – |
| Oc1ccccc1-c1nnco1 | – | – | 112 °C | – |
| OCC(CO)(CO)CBr | – | – | 76 °C | – |
| Oc1ccccc1C=Nc1ccccc1 | – | – | 49.5 °C | – |
| C[Si]1(C)O[Si](C)(C)O[Si](C)(C)O1 | 134 °C | 0.548 | 64.5 °C | – |
| FC(F)(Br)C(F)(F)Br | 47.3 °C | 2.51 | -110 °C | ready biodegradability: not readily biodegradable |
| CCOc1ccc(NC(=O)C(C)O)cc1 (stereo not drawn) | – | – | 118 °C | – |
| NCCCCCO | 222 °C | – | 38.5 °C | – |
| Clc1cccc(-c2cc(Cl)cc(Cl)c2)c1 | – | – | – | log10 Henry constant (atm·m³/mol): -3.77 |
| O=Cc1cccc2c1CCOC2=O | – | – | 140 °C | – |
| FC(F)(F)C(F)(F)I | 13 °C | – | – | – |
| c1cnc(N2CCN(Cc3ccc4c(c3)OCO4)CC2)nc1 | – | – | 98 °C | – |
| CCOC(=O)CC#N | 210 °C | -1.41 | -22.5 °C | ready biodegradability: readily biodegradable |
| CCCCOc1ccc(C)cc1 | 230 °C | – | – | – |
| CC(=O)Nc1cc(NS(=O)(=O)C(F)(F)F)c(C)cc1C | – | – | 184 °C | log10 Koc (L/kg): 2.3 |
